Experimental data from patent publication US4161598A, “1-Oxygenated-2,6-methano-3-benzazocines” (Sterling Drug Inc., priority 1977, dated 1979).
Structures can show the parent of a compound that is named as a salt. Where two headings read alike, the source gives them in different places.

How the values were obtained:
acetylcholine = assay: Anti-acetylcholine Writhing Test; format: in vivo, mice; conditions: subcutaneous; for ED50: Mus musculus, sc, 20 min, read-out: Subcutaneous ED50 (95% Confidence Limits)
Description: This response has also been called writhing. Animals are pretreated with test compounds (20 minutes for both subcutaneous and oral routes) and observed for two minutes immediately following the administration of acetylcholine. Mice not responding during the two-minute observation period are scored protected while those responding one or more times are scored not protected. Test compounds are screened at doses of 75 and 25 mg./kg. subcutaneously or 150 and 50 mg./kg. orally. […] ED50 values for active compounds are estimated by probit analysis of quantal scores for 4 or more dosage levels using 15 animals per dose. Vehicle-pretreated control animals are tested concurrently with each run of 15 experimental animals.

meperidine = assay: Tail-flick Antagonist Test against meperidine; conditions: Rattus norvegicus, sc, 10 min, read-out: Subcutaneous AD50 (95% Confidence Limits) Against Meperidine
phenazocine = assay: Tail-flick Antagonist Test against phenazocine; conditions: for ED50: Rattus norvegicus, sc, 10 min, read-out: Subcutaneous AD50 (95% Confidence Limits) Against Phenazocine

| Structure (SMILES) | ED50 (acetylcholine; form tested not given) [mg/kg] | ED50 (phenazocine) [mg/kg] | also measured |
| --- | --- | --- | --- |
| C[C@H]1[C@H]2[C@H](O)c3ccc(O)cc3[C@]1(C)CCN2CC1CC1 (relative stereo) [Example 18, 1,2,3,4,5,6-hexahydro-1(eq),8-dihydroxy-3-cyclopropylmethyl-6(eq), 11(ax)-dimethyl-2,6-methano-3-benzazocine hydrochloride] | 10 | – | ED50 (meperidine): 11 mg/kg |
| CC(C)CC(=O)Oc1ccc2c(c1)[C@]1(C)CCN(CC3CC3)[C@H](C2=O)[C@@H]1C (relative stereo) [Example 7, 1,2,3,4,5,6-hexahydro-1-oxo-3-cyclopropylmethyl-8-isovaleryloxy-6(eq),11(ax)-dimethyl-2,6-methano-3-benzazocine] | 0.06 | 5.2 | – |
| C[C@@H]1[C@@H]2C(=O)c3ccc(O)cc3[C@@]1(C)CCN2CC1CC1 [Example 26D, dextro-rotatory 2S,6R,11R-1,2,3,4,5,6-hexahydro-1-oxo-3-cyclopropylmethyl-8-hydroxy-6(eq),11(ax)-dimethyl-2,6-methano-3-benzazocine] | – | – | % effect (acetylcholine; 25 mg./kg., methanesulfonate salt): 33%; % effect (acetylcholine; 75 mg./kg., methanesulfonate salt): 93%; narcotic antagonist effect against phenazocine (phenazocine; 10 mg./kg. subcutaneously, methanesulfonic salt, in words): inactive; % effect against phenazocine (phenazocine; 80 mg./kg. subcutaneously, methanesulfonic salt): 32% |
| C=CCN1CC[C@@]2(C)c3cc(O)ccc3C(=O)[C@@H]1[C@@H]2C (relative stereo) [Example 16, 1,2,3,4,5,6-hexahydro-1-oxo-3-allyl-8-hydroxy-6(eq),11(ax)-dimethyl-2,6-methano-3-benzazocine] | 1.5 | 2.2 | – |
| COc1ccc(C(=O)Oc2ccc3c(c2)[C@]2(C)CCN(CC4CC4)[C@H](C3=O)[C@@H]2C)cc1 (relative stereo) [Example 10, 1,2,3,4,5,6-hexahydro-1-oxo-3-cyclopropylmethyl-8-(p-anisoyloxy)-6(eq),11(ax)-dimethyl-2,4-methano-3-benzazocine] | 0.1 | – | – |
| CCCC(=O)Oc1ccc2c(c1)[C@]1(C)CCN(CC3CC3)[C@H](C2=O)[C@@H]1C (relative stereo) [Example 4, 1,2,3,4,5,6-hexahydro-1-oxo-3-cyclopropylmethyl-8-butyryloxy-6(eq),11(ax)-dimethyl-2,6-methano-3-benzazocine hydrochloride] | 0.14 | 6.2 | – |
| Cc1ccc(C(=O)Oc2ccc3c(c2)[C@]2(C)CCN(CC4CC4)[C@H](C3=O)[C@@H]2C)cc1 (relative stereo) [Example 12, 1,2,3,4,5,6-hexahydro-1-oxo-3-cyclopropylmethyl-8-(p-toluyloxy)-6(eq),11(ax)-dimethyl-2,6-methano-3-benzazocine] | 0.06 | – | – |
| C[C@H]1[C@H]2C(=O)c3ccc(O)cc3[C@]1(C)CCN2CC1CC1 [Example 26C, 2S,6R,11R-1,2,3,4,5,6-hexahydro-1-oxo-3-cyclopropylmethyl-8-hydroxy-6(eq),11(ax)-dimethyl-2,6-methano-3-benzazocine] | – | 2.4 | ED50 (acetylcholine; methanesulfonate salt): 0.11 mg/kg |
| C=CCN1CC[C@@]2(C)c3cc(O)ccc3[C@@H](O)[C@@H]1[C@@H]2C (relative stereo) [Example 17, 1,2,3,4,5,6-hexahydro-1(eq),8-dihydroxy-3-allyl-6(eq),11(ax)-dimethyl-2,6-methano-3-benzazocine] | 4.8 | – | ED50 (meperidine): 0.98 mg/kg |
| CC(C)C(=O)Oc1ccc2c(c1)[C@]1(C)CCN(CC3CC3)[C@H](C2=O)[C@@H]1C (relative stereo) [Example 6, 1,2,3,4,5,6-hexahydro-1-oxo-3-cyclopropylmethyl-8-isobutyryloxy-6(eq),11(ax)-dimethyl-2,6-methano-3-benzazocine] | 0.09 | 7 | – |
| CC(=O)Oc1ccc2c(c1)[C@]1(C)CCN(CC3CC3)[C@H](C2=O)[C@@H]1C (relative stereo) [Example 2, 1,2,3,4,5,6-hexahydro-1-oxo-3-cyclopropylmethyl-8-acetoxy-6(eq),11(ax)-dimethyl-2,6-methano-3-benzazocine hydrochloride] | – | 3 | ED50 (acetylcholine; hydrochloride salt): 0.14 mg/kg |
| CC[C@H]1[C@H]2C(=O)c3ccc(O)cc3[C@]1(C)CCN2CC1CC1 (relative stereo) [Example 33E, 1,2,3,4,5,6-hexahydro-1-oxo-3-cyclopropylmethyl-8-hydroxy-6(eq)-methyl-11-(ax)-ethyl-2,6-methano-3-benzazocine] | 0.47 | 0.17 | – |
| C[C@H]1[C@H]2C(=O)c3ccc(OC(=O)C(C)(C)C)cc3[C@]1(C)CCN2CC1CC1 (relative stereo) [Example 5, 1,2,3,4,5,6-hexahydro-1-oxo-3-cyclopropylmethyl-8-pivalyloxy-6(eq),11(ax)-dimethyl-2,6-methano-3-benzazocine] | 0.06 | 38 | – |
| CCC[C@]12CCN(CC3CC3)[C@H](C(=O)c3ccc(O)cc31)[C@@H]2C (relative stereo) [Example 32C, 1,2,3,4,5,6-hexahydro-1-oxo-3-cyclopropylmethyl-8-hydroxy-6(eq)-propyl-11(ax)-methyl-2,6-methano-3-benzazocine] | 1.5 | – | – |
| CCC(=O)Oc1ccc2c(c1)[C@]1(C)CCN(CC3CC3)[C@H](C2=O)[C@@H]1C (relative stereo) [Example 3, 1,2,3,4,5,6-hexahydro-1-oxo-3-cyclopropylmethyl-8-propionyloxy-6(eq),11(ax)-dimethyl-2,6-methano-3-benzazocine hydrochloride] | – | 6 | % effect (acetylcholine; 0.1 mg./kg.): 20%; % effect (acetylcholine; 1 mg./kg.): 27%; % effect (acetylcholine; 10 mg./kg.): 7%; % effect (acetylcholine; 100 mg./kg.): 47% |
| C[C@@H]1[C@H]2C(=O)c3ccc(O)cc3[C@]1(C)CCN2CC1CC1 (relative stereo) [Example 27, 1,2,3,4,5,6-hexahydro-1-oxo-3-cyclopropylmethyl-8-hydroxy-6(eq),11(eq)-dimethyl-2,6-methano-3-benzazocine hydrochloride hemiethanolate] | 30 | 2.8 | – |
| C[C@H]1[C@H]2C(=O)c3ccc(OC(=O)c4ccccc4)cc3[C@]1(C)CCN2CC1CC1 (relative stereo) [Example 9, 1,2,3,4,5,6-hexahydro-1-oxo-3-cyclopropylmethyl-8-benzoyloxy-6(eq),11(ax)-dimethyl-2,6-methano-3-benzazocine] | 0.07 | 14 | – |
| CCCN1CC[C@@]2(CC)c3cc(O)ccc3C(=O)[C@@H]1[C@@H]2C (relative stereo) [Example 36, 1,2,3,4,5,6-hexahydro-3-propyl-1-oxo-8-hydroxy-6(eq)-ethyl-11(ax)-methyl-2,6-methano-3-benzazocine methanesulfonate] | 1 | 6.2 | – |
| C[C@H]1[C@H]2C(=O)c3ccc(OC(=O)c4ccc(C(F)(F)F)cc4)cc3[C@]1(C)CCN2CC1CC1 (relative stereo) [Example 13, 1,2,3,4,5,6-hexahydro-1-oxo-3-cyclopropylmethyl-8-(p-trifluoromethylbenzoyloxy)-6(eq),11(ax)-dimethyl-2,6-methano-3-benzazocine] | 0.05 | – | – |
| C[C@H]1[C@H]2C(=O)c3ccc(OC(=O)CC(C)(C)C)cc3[C@]1(C)CCN2CC1CC1 (relative stereo) [Example 8, 1,2,3,4,5,6-hexahydro-1-oxo-3-cyclopropylmethyl-8-(3,3-dimethylbutanoyloxy)-6(eq),11(ax)-dimethyl-2,6-methano-3-benzazocine] | 0.08 | – | – |
| CCCN1CC[C@@]2(C)c3cc(O)ccc3C(=O)[C@@H]1[C@@H]2C (relative stereo) [Example 15, 1,2,3,4,5,6-hexahydro-1-oxo-3-propyl-8-hydroxy-6(eq),11(ax)-dimethyl-2,6-methano-3-benzazocine] | 3.2 | 2.8 | – |
| CC[C@@]12CCN(CC3CC3)[C@@H](C1)C(=O)c1ccc(O)cc12 (relative stereo) [Example 28C, 1,2,3,4,5,6-hexahydro-1-oxo-3-cyclopropylmethyl-8-hydroxy-6(eq)-ethyl-2,6-methano-3-benzazocine hydrochloride] | 0.38 | 14 | – |
| C=CCN1CC[C@@]2(CC)c3cc(O)ccc3C(=O)[C@@H]1[C@@H]2C (relative stereo) [Example 37, 1,2,3,4,5,6-hexahydro-3-allyl-1-oxo-8-hydroxy-6(eq)-ethyl-11(ax)-methyl-2,6-methano-3-benzazocine] | 2.3 | 6.3 | – |
| CC[C@H]1[C@H]2C(=O)c3ccc(O)cc3[C@]1(CC)CCN2CC1CC1 (relative stereo) [Example 31C, 1,2,3,4,5,6-hexahydro-1-oxo-3-cyclopropylmethyl-8-hydroxy-6(eq),11(ax)-diethyl-2,6-methano-3-benzazocine] | – | 0.48 | ED50 (acetylcholine; methanesulfonate salt): 0.15 mg/kg |
| CC[C@]12CCN(CC3CC3)[C@H](C(=O)c3ccc(O)cc31)[C@H]2C (relative stereo) [Example 30C, 1,2,3,4,5,6-hexahydro-1-oxo-3-cyclopropylmethyl-8-hydroxy-6(eq)-ethyl-11(eq)-methyl-2,6-methano-3-benzazocine hydrochloride] | 2.1 | 4.2 | – |
| COc1cccc(C(=O)Oc2ccc3c(c2)[C@]2(C)CCN(CC4CC4)[C@H](C3=O)[C@@H]2C)c1 (relative stereo) [Example 11, 1,2,3,4,5,6-hexahydro-1-oxo-3-cyclopropylmethyl-8-(m-anisoyloxy)-6(eq),11(ax)-dimethyl-2,6-methano-3-benzazocine hydrochloride] | 0.1 | – | – |
